# Like-named read-outs stand apart in the source and are kept apart here.
# Assay: Organ distribution of injected radioactivity in rats after I.V. injection
# Format: in vivo, Ratten (weiblich, Wistar, spf)
# Details: Ratte; for tissue uptake at 2 min / tissue uptake at 10 min / tissue uptake at 20 min / tissue uptake at 40 min / tissue uptake at 1 h / tissue uptake at 6 h / tissue uptake at 15 h: rat, iv, read-out: Prozent der injizierten Aktivität pro Gramm des entsprechenden Organs; for tissue uptake at 1 h: 60′
# Protocol: Es werden je 3 Ratten (weiblich, Wistar, spf) zu sieben verschiedenen Zeitpunkten (2′, 10′, 20′, 40′, 1h, 6h, 15h) gemessen. Das Gewicht der Tiere lag zwischen 113 und 144 g. Die Fütterung erfolgte ad libitum. Die I.V. injizierten Dosen variierten von 184 bis 355 µCi in jeweils 0,2 ml.
structure (smiles),measurement,setting,value
"CCOC(=O)c1ncn2c1CN(C)C(=O)c1c([123I])cccc1-2 [Aethyl-7-¹²³Jod-5,6-dihydro-5-methyl-6-oxo-4H-imidazo[1,5-a][1,4]benzodiazepin-3-carboxylat]",Prozent der injizierten Aktivität in den entsprechend Organen,"Totalkörper, 15h","2,80 Prozent der injizierten Aktivität"
same,tissue uptake at 2 min,"bladder, Blase",0.59 %ID/g
same,tissue uptake at 10 min,"bladder, Blase",1.07 %ID/g
same,tissue uptake at 20 min,"bladder, Blase",0.69 %ID/g
same,tissue uptake at 40 min,"bladder, Blase",0.24 %ID/g
same,tissue uptake at 1 h,"bladder, Blase",0.42 %ID/g
same,tissue uptake at 6 h,"bladder, Blase",0.57 %ID/g
same,tissue uptake at 15 h,"bladder, Blase, 15h",0.023 %ID/g
same,tissue uptake at 2 min,"blood, Blut",0.7 %ID/g
same,tissue uptake at 10 min,"blood, Blut",0.87 %ID/g
same,tissue uptake at 20 min,"blood, Blut",0.46 %ID/g
same,tissue uptake at 40 min,"blood, Blut",0.17 %ID/g
same,tissue uptake at 1 h,"blood, Blut",0.11 %ID/g
same,tissue uptake at 6 h,"blood, Blut",0.04 %ID/g
same,tissue uptake at 15 h,"blood, Blut, 15h",0.013 %ID/g
same,tissue uptake at 2 min,"brain, Hirn",2.12 %ID/g
same,tissue uptake at 10 min,"brain, Hirn",3.22 %ID/g
same,tissue uptake at 20 min,"brain, Hirn",2.99 %ID/g
same,tissue uptake at 40 min,"brain, Hirn",2.7 %ID/g
same,tissue uptake at 1 h,"brain, Hirn",1.8 %ID/g
same,tissue uptake at 6 h,"brain, Hirn",0.05 %ID/g
same,tissue uptake at 15 h,"brain, Hirn, 15h",0.001 %ID/g
same,tissue uptake at 2 min,"heart, Herz",0.86 %ID/g
same,tissue uptake at 10 min,"heart, Herz",0.66 %ID/g
same,tissue uptake at 20 min,"heart, Herz",0.3 %ID/g
same,tissue uptake at 40 min,"heart, Herz",0.1 %ID/g
same,tissue uptake at 1 h,"heart, Herz",0.06 %ID/g
same,tissue uptake at 6 h,"heart, Herz",0.02 %ID/g
same,tissue uptake at 15 h,"heart, Herz, 15h",0.007 %ID/g
same,tissue uptake at 2 min,"intestine, Darm",0.75 %ID/g
same,tissue uptake at 10 min,"intestine, Darm",1.1 %ID/g
same,tissue uptake at 20 min,"intestine, Darm",1.73 %ID/g
same,tissue uptake at 40 min,"intestine, Darm",2.02 %ID/g
same,tissue uptake at 1 h,"intestine, Darm",1.97 %ID/g
same,tissue uptake at 6 h,"intestine, Darm",1.55 %ID/g
same,tissue uptake at 15 h,"intestine, Darm, 15h",0.143 %ID/g
same,tissue uptake at 2 min,Femur,0.54 %ID/g
same,tissue uptake at 10 min,Femur,0.45 %ID/g
same,tissue uptake at 20 min,Femur,0.24 %ID/g
same,tissue uptake at 40 min,Femur,0.1 %ID/g
same,tissue uptake at 1 h,Femur,0.07 %ID/g
same,tissue uptake at 6 h,Femur,0.02 %ID/g
same,tissue uptake at 15 h,"Femur, 15h",0.007 %ID/g
same,tissue uptake at 2 min,"kidney, Nieren",2.68 %ID/g
same,tissue uptake at 10 min,"kidney, Nieren",7.06 %ID/g
same,tissue uptake at 20 min,"kidney, Nieren",5.26 %ID/g
same,tissue uptake at 40 min,"kidney, Nieren",1.35 %ID/g
same,tissue uptake at 1 h,"kidney, Nieren",0.68 %ID/g
same,tissue uptake at 6 h,"kidney, Nieren",0.03 %ID/g
same,tissue uptake at 15 h,"kidney, Nieren, 15h",0.01 %ID/g
same,tissue uptake at 2 min,"liver, Leber",2.38 %ID/g
same,tissue uptake at 10 min,"liver, Leber",5.66 %ID/g
same,tissue uptake at 20 min,"liver, Leber",2.62 %ID/g
same,tissue uptake at 40 min,"liver, Leber",0.58 %ID/g
same,tissue uptake at 1 h,"liver, Leber",0.19 %ID/g
same,tissue uptake at 6 h,"liver, Leber",0.02 %ID/g
same,tissue uptake at 15 h,"liver, Leber, 15h",0.016 %ID/g
same,tissue uptake at 2 min,"lung, Lunge",1.22 %ID/g
same,tissue uptake at 10 min,"lung, Lunge",0.87 %ID/g
same,tissue uptake at 20 min,"lung, Lunge",0.44 %ID/g
same,tissue uptake at 40 min,"lung, Lunge",0.15 %ID/g
same,tissue uptake at 1 h,"lung, Lunge",0.1 %ID/g
same,tissue uptake at 6 h,"lung, Lunge",0.03 %ID/g
same,tissue uptake at 15 h,"lung, Lunge, 15h",0.011 %ID/g
same,tissue uptake at 2 min,"muscle, Muskel",0.68 %ID/g
same,tissue uptake at 10 min,"muscle, Muskel",0.42 %ID/g
same,tissue uptake at 20 min,"muscle, Muskel",0.2 %ID/g
same,tissue uptake at 40 min,"muscle, Muskel",0.09 %ID/g
same,tissue uptake at 1 h,"muscle, Muskel",0.04 %ID/g
same,tissue uptake at 6 h,"muscle, Muskel",0.01 %ID/g
same,tissue uptake at 15 h,"muscle, Muskel, 15h",0.003 %ID/g
same,tissue uptake at 2 min,"ovary, Ovar",0.88 %ID/g
same,tissue uptake at 10 min,"ovary, Ovar",0.73 %ID/g
same,tissue uptake at 20 min,"ovary, Ovar",0.53 %ID/g
same,tissue uptake at 40 min,"ovary, Ovar",0.22 %ID/g
same,tissue uptake at 1 h,"ovary, Ovar",0.16 %ID/g
same,tissue uptake at 6 h,"ovary, Ovar",0.03 %ID/g
same,tissue uptake at 15 h,"ovary, Ovar, 15h",0.011 %ID/g
same,tissue uptake at 2 min,"spleen, Milz",0.6 %ID/g
same,tissue uptake at 10 min,"spleen, Milz",0.53 %ID/g
same,tissue uptake at 20 min,"spleen, Milz",0.29 %ID/g
same,tissue uptake at 40 min,"spleen, Milz",0.14 %ID/g
same,tissue uptake at 1 h,"spleen, Milz",0.07 %ID/g
same,tissue uptake at 6 h,"spleen, Milz",0.02 %ID/g
same,tissue uptake at 15 h,"spleen, Milz, 15h",0.01 %ID/g
same,tissue uptake at 2 min,"stomach, Magen",0.19 %ID/g
same,tissue uptake at 10 min,"stomach, Magen",0.41 %ID/g
same,tissue uptake at 20 min,"stomach, Magen",0.35 %ID/g
same,tissue uptake at 40 min,"stomach, Magen",0.27 %ID/g
same,tissue uptake at 1 h,"stomach, Magen",0.48 %ID/g
same,tissue uptake at 6 h,"stomach, Magen",0.73 %ID/g
same,tissue uptake at 15 h,"stomach, Magen, 15h",0.08 %ID/g
same,tissue uptake at 2 min,"thyroid, Schilddrüse",0.6 %ID/g
same,tissue uptake at 10 min,"thyroid, Schilddrüse",0.54 %ID/g
same,tissue uptake at 20 min,"thyroid, Schilddrüse",1.22 %ID/g
same,tissue uptake at 40 min,"thyroid, Schilddrüse",0.08 %ID/g
same,tissue uptake at 1 h,"thyroid, Schilddrüse",0.06 %ID/g
same,tissue uptake at 6 h,"thyroid, Schilddrüse",0.03 %ID/g
same,tissue uptake at 15 h,"thyroid, Schilddrüse, 15h",0.007 %ID/g

# From patent publication EP0353754A2, “Radioactively marked benzodiazepin derivates” (F. HOFFMANN-LA ROCHE AG, priority 1988, dated 1990)
